Like-named read-outs stand apart in the source and are kept apart here.
What was measured:
[1] = Compartmental PK model, IV and SQ co-modeling; type: in vivo, C57BL/6 J mice; conditions: mouse
Excerpt: The results of the simultaneous model (co-model) are summarized in Table 2, and the parameters were used in subsequent simulation exercises (vide infra).
The change in amount over time within each compartment was related to the difference in the input into the compartment (e.g., the Dose × F × Ka term into compartment C1) and the output from the compartment (e.g., the Concentration × Kout term for compartment Ccell). Two compartments –plus a dosing compartment– best described TFV plasma PKs.
A third compartment was used to model the PKs of PBMC TFV-DP concentrations. Intracellular PKs of TFV-DP were linked to the plasma TFV concentration via saturable uptake (Vmax and Km) with maximum velocity of uptake and first order elimination kinetics, Kout. […] C1 is the central compartment, representing the TFV plasma concentration in the body. The second compartment C2 represents the peripheral tissues, and the cellular compartment Ccell represents the concentrations of TFV-DP in PBMCs. Parameters CLp and Vp describe clearance and volume of the peripheral compartment (C2) and Ka and CL are the rates of TFV uptake and clearance into/out of the central compartment (C1), respectively. […] The physiological PBMC volume was assumed to be 7.55 × 10^–7 L/10^6 cells, to remain consistent with Duwal et al.[44] for the model analysis, while all other parameters were estimated in the model. The ordinary differential equations (Eqs. 1–3) used in the final model are presented below:1 d/dtC1t=F·Ka·Dt/V-C1t·CL/V-CLp/V·C1t+CLp/Vp·C2t 2 d/dtC2t=[…] 3 d/dtCcellt=Vmax·C1t/Km-Ccellt·Kout
Compartmental analyses were performed in Phoenix software (version 8.3, Certara, Princeton, NJ) using a published, simple, structural PK model describing the TFV kinetics. IV and SQ data were modeled simultaneously. Due to the destructive nature of the blood sampling, data were modeled using a naïve-pooled algorithm, without inter-animal variability. The resulting systemic parameters, along with the implant in vivo release rates on a per animal basis, were used to co-model (predict) concentration data in mice following during implant dosing.

[2] = subcutaneous dosing of the free drug, humanized mice; cited from earlier work

SMILES: C[C@H](Cn1cnc2c(N)ncnc21)OCP(=O)(O)O [TFV, tenofovir]
- clearance ([1]; C57BL/6 J, plasma, other: intravenous and subcutaneous injection, co-modelled, 0.5 mg, IV and SQ co-modeling, read-out: CL, total body clearance (converted)): 4.48 mL/min
- half-life ([1]; C57BL/6 J, plasma, other: intravenous and subcutaneous injection, co-modelled, 0.5 mg, IV and SQ co-modeling, read-out: Elimination half-life t1/2, plasma TFV (converted)): 53 h
- Vd ([1]; C57BL/6 J, plasma, other: intravenous and subcutaneous injection, co-modelled, 0.5 mg, IV and SQ co-modeling, read-out: V, volume of distribution of the central compartment): 4.59 L
- half-life ([1]; C57BL/6 J, plasma, other: intravenous and subcutaneous injection, co-modelled, 0.5 mg, IV and SQ co-modeling, read-out: t1/2, elimination half-life, plasma TFV (converted)): 52.8 h
- Vmax/Km as share of the non-saturable clearance ([1]; in vivo): 2%
- Plasma TFV t1/2 [2]: 14 h
